Earlier results in patent US12115245B2 (Xiamen University, priority 2019, dated 2024).
Where a SMILES comes first, the peptide text is derived from it.

solubility in water / aqueous solutions | SMILES
very soluble in water | C[C@H](N)C(=O)N[C@@H](CCC(N)=O)C(=O)O [Ala-Gln, L-alanyl-L-glutamine] (H-Ala-Gln-OH)
low solubility in aqueous solutions | NC(=O)CC[C@H](N)C(=O)O [Gln, Glutamine]
